Toxic doses and inconclusive results are not listed. How the source made its calls: active means survival T/C of 150% or more; inactive means T/C below 125% in these data.
Test system: P388 leukemia ip, CD2F1 mice, survival T/C
Assay: NCI In Vivo Anticancer Drug Screen. Data for tumor model P388 Leukemia (intraperitoneal) in CD2F1 (CDF1) mice
Conditions: endpoint: median survival time, higher = longer survival
Outline: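 Mice carrying the transplanted tumor received test compound or vehicle. Survival was recorded in each group, and the value is the treated-group measurement divided by that of the vehicle-treated control group.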

[1] = dose: 100.0 mg/kg/injection, schedule: Q04DX003 (ip), vehicle: saline with Tween-80
[2] = dose: 200.0 mg/kg/injection, schedule: Q04DX003 (ip), vehicle: saline with Tween-80
[3] = dose: 400.0 mg/kg/injection, schedule: Q04DX003 (ip), vehicle: saline with Tween-80
[4] = dose: 50.0 mg/kg/injection, schedule: Q01DX005 (ip), vehicle: Klucel (hydroxypropylcellulose) (HPC)
[5] = dose: 100.0 mg/kg/injection, schedule: Q01DX005 (ip), vehicle: Klucel (hydroxypropylcellulose) (HPC)
[6] = dose: 50.0 mg/kg/injection, schedule: Q01DX005 (ip), vehicle: saline with Tween-80
[7] = dose: 100.0 mg/kg/injection, schedule: Q01DX005 (ip), vehicle: saline with Tween-80
[8] = dose: 200.0 mg/kg/injection, schedule: Q01DX005 (ip), vehicle: saline with Tween-80
[9] = dose: 25.0 mg/kg/injection, schedule: Q04DX002 (ip), vehicle: saline with Tween-80
[10] = dose: 50.0 mg/kg/injection, schedule: Q04DX002 (ip), vehicle: saline with Tween-80

Measured: T/C

CC(=O)OC1CC2C(C)(C)C(=O)C3OC3C2(C)C2CCC3(C)C(c4ccoc4)C(=O)C4OC43C12C (centres undefined)
inactive: dose: 0.38 mg/kg/injection, schedule: Q01DX005 (ip), vehicle: Klucel (hydroxypropylcellulose) (HPC) 100 % of control | dose: 0.75 mg/kg/injection, schedule: Q01DX005 (ip), vehicle: Klucel (hydroxypropylcellulose) (HPC) 100 % of control | dose: 1.5 mg/kg/injection, schedule: Q01DX005 (ip), vehicle: Klucel (hydroxypropylcellulose) (HPC) 100 % of control | dose: 3.0 mg/kg/injection, schedule: Q01DX005 (ip), vehicle: Klucel (hydroxypropylcellulose) (HPC) 100 % of control | dose: 6.0 mg/kg/injection, schedule: Q01DX005 (ip), vehicle: Klucel (hydroxypropylcellulose) (HPC) 106 % of control

CCOC(=O)C(CCCCC(NC(C)=O)(C(=O)OCC)C(=O)OCC)(NC(C)=O)C(=O)OCC
inactive: [1] 100 % of control | [2] 100 % of control | [3] 95 % of control

CCC(O)(CC)/C(C)=N/O
inactive: dose: 50.0 mg/kg/injection, schedule: Q01DX009 (ip), vehicle: saline with Tween-80 91 % of control | dose: 100.0 mg/kg/injection, schedule: Q01DX009 (ip), vehicle: saline with Tween-80 89 % of control | dose: 200.0 mg/kg/injection, schedule: Q01DX009 (ip), vehicle: saline with Tween-80 94 % of control

Cc1nc2cc3c(cc2n2cccc12)oc1ccccc13
inactive: dose: 25.0 mg/kg/injection, schedule: Q01DX005 (ip), vehicle: Klucel (hydroxypropylcellulose) (HPC) 88 % of control | [4] 96 % of control | [5] 86 % of control

O=C(NN1CCCCC1)NN1CCCCC1
inactive: [6] 101 % of control | [7] 100 % of control | [8] 100 % of control

C/C(=N\N=C(N)N)c1ccc2c(c1)Cc1ccccc1-2
inactive: [9] 101 % of control | [10] 103 % of control

COc1ccc2c(c1)NC(=O)Cn1nnnc1-2
inactive: [9] 96 % of control | [10] 91 % of control | dose: 100.0 mg/kg/injection, schedule: Q04DX002 (ip), vehicle: saline with Tween-80 96 % of control | dose: 400.0 mg/kg/injection, schedule: Q04DX002 (ip), vehicle: saline with Tween-80 93 % of control

COc1ccc2c(c1)CN(Cc1ccccc1)CO2
inactive: dose: 60.0 mg/kg/injection, schedule: Q01DX005 (ip), vehicle: saline with Tween-80 104 % of control | dose: 120.0 mg/kg/injection, schedule: Q01DX005 (ip), vehicle: saline with Tween-80 105 % of control | dose: 240.0 mg/kg/injection, schedule: Q01DX005 (ip), vehicle: saline with Tween-80 102 % of control

Oc1ccccc1-c1cc(-c2ccccc2)nc(NCCCCCCNc2nc(-c3ccccc3)cc(-c3ccccc3O)n2)n1
inactive: [4] 90 % of control | [5] 90 % of control

COC(=O)[C@H](C)C1OC(O)C=CC1=O (some centres undefined)
inactive: dose: 6.25 mg/kg/injection, schedule: Q01DX001 (ip), vehicle: saline + Tween-80 + alcohol 100 % of control | dose: 12.5 mg/kg/injection, schedule: Q01DX001 (ip), vehicle: saline + Tween-80 + alcohol 108 % of control | dose: 25.0 mg/kg/injection, schedule: Q01DX001 (ip), vehicle: saline + Tween-80 + alcohol 101 % of control | dose: 50.0 mg/kg/injection, schedule: Q01DX001 (ip), vehicle: saline + Tween-80 + alcohol 101 % of control

Cc1cc(O)cc(O)c1C(=O)OC1CC2(C)C3CC(C)(C)CC3C=C(C=O)C12O (centres undefined)
inactive: dose: 1.5 mg/kg/injection, schedule: Q01DX005 (ip), vehicle: Klucel + Tween-80 107 % of control | dose: 3.0 mg/kg/injection, schedule: Q01DX005 (ip), vehicle: Klucel + Tween-80 97 % of control | dose: 6.0 mg/kg/injection, schedule: Q01DX005 (ip), vehicle: Klucel + Tween-80 103 % of control | dose: 12.0 mg/kg/injection, schedule: Q01DX005 (ip), vehicle: Klucel + Tween-80 99 % of control

O=C1C2(Cl)C3(Cl)C4(Cl)C(Cl)(Cl)C5(Cl)[C@]3(Cl)C1(Cl)[C@]5(Cl)C24Cl (some centres undefined)
inactive: dose: 12.5 mg/kg/injection, schedule: Q01DX009 (ip), vehicle: Klucel (hydroxypropylcellulose) (HPC) 110 % of control | dose: 12.5 mg/kg/injection, schedule: Q01DX009 (ip), vehicle: saline with Tween-80 94 % of control | dose: 25.0 mg/kg/injection, schedule: Q01DX009 (ip), vehicle: Klucel (hydroxypropylcellulose) (HPC) 112 % of control | dose: 25.0 mg/kg/injection, schedule: Q01DX009 (ip), vehicle: saline with Tween-80 87 % of control

C[CH2][Sn]1([CH2]C)[O]C(=O)[O][Sn]([CH2]C)([CH2]C)[O]1
inactive: dose: 3.12 mg/kg/injection, schedule: Q01DX005 (ip), vehicle: Klucel (hydroxypropylcellulose) (HPC) 122 % of control | dose: 6.25 mg/kg/injection, schedule: Q01DX005 (ip), vehicle: Klucel (hydroxypropylcellulose) (HPC) 119 % of control

CNCC1CCCCC1NC (centres undefined)
inactive: dose: 50.0 mg/kg/injection, schedule: Q04DX003 (ip), vehicle: saline 99 % of control | dose: 100.0 mg/kg/injection, schedule: Q04DX003 (ip), vehicle: saline 97 % of control | dose: 200.0 mg/kg/injection, schedule: Q04DX003 (ip), vehicle: saline 96 % of control

COC1CCC(NC(=O)N(N=O)C2CCC(OC)CC2)CC1 (centres undefined)
inactive: dose: 25.0 mg/kg/injection, schedule: Q01DX001 (ip), vehicle: distilled water + Tween-80 109 % of control | dose: 50.0 mg/kg/injection, schedule: Q01DX001 (ip), vehicle: distilled water + Tween-80 100 % of control | dose: 100.0 mg/kg/injection, schedule: Q01DX001 (ip), vehicle: distilled water + Tween-80 100 % of control | dose: 200.0 mg/kg/injection, schedule: Q01DX001 (ip), vehicle: distilled water + Tween-80 105 % of control

CC(=O)Nc1ccc(Br)c(NC(C)=O)n1
inactive: [1] 104 % of control | [2] 104 % of control | [3] 109 % of control

Cc1ccc2c(c1)Sc1c(ccc3ccccc13)N2
inactive: [6] 103 % of control | [7] 102 % of control | [8] 97 % of control

CC1=C2CC(C)(C)/C=C\C(=O)/C(C)=C\C3=CC(C)(O)CC3(O2)C1=O (centres undefined)
inactive: dose: 0.92 mg/kg/injection, schedule: Q01DX009 (ip), vehicle: saline with Tween-80 102 % of control | dose: 1.25 mg/kg/injection, schedule: Q01DX009 (ip), vehicle: Klucel (hydroxypropylcellulose) (HPC) 109 % of control | dose: 1.84 mg/kg/injection, schedule: Q01DX009 (ip), vehicle: saline with Tween-80 98 % of control | dose: 2.5 mg/kg/injection, schedule: Q01DX009 (ip), vehicle: Klucel (hydroxypropylcellulose) (HPC) 120 % of control | dose: 3.67 mg/kg/injection, schedule: Q01DX009 (ip), vehicle: saline with Tween-80 116 % of control | dose: 5.0 mg/kg/injection, schedule: Q01DX009 (ip), vehicle: Klucel (hydroxypropylcellulose) (HPC) 118 % of control | dose: 7.34 mg/kg/injection, schedule: Q01DX009 (ip), vehicle: saline with Tween-80 118 % of control | dose: 10.0 mg/kg/injection, schedule: Q01DX009 (ip), vehicle: Klucel (hydroxypropylcellulose) (HPC) 120 % of control

NC12CCC(c3ccccc31)c1ccccc12
inactive: dose: 60.0 mg/kg/injection, schedule: Q01DX005 (ip), vehicle: Klucel (hydroxypropylcellulose) (HPC) 95 % of control | dose: 120.0 mg/kg/injection, schedule: Q01DX005 (ip), vehicle: Klucel (hydroxypropylcellulose) (HPC) 102 % of control | dose: 240.0 mg/kg/injection, schedule: Q01DX005 (ip), vehicle: Klucel (hydroxypropylcellulose) (HPC) 93 % of control

NC(=O)C(CC(C(=O)O)c1ccccc1)c1ccccc1 (centres undefined)
inactive: dose: 100.0 mg/kg/injection, schedule: Q01DX001 (ip), vehicle: Klucel (hydroxypropylcellulose) (HPC) 99 % of control | dose: 200.0 mg/kg/injection, schedule: Q01DX001 (ip), vehicle: Klucel (hydroxypropylcellulose) (HPC) 96 % of control | dose: 400.0 mg/kg/injection, schedule: Q01DX001 (ip), vehicle: Klucel (hydroxypropylcellulose) (HPC) 97 % of control
